Where a name gives a salt, the structure may show the parent alone.
Target: T1, SGK1 (Homo sapiens, UniProt O00141)
T1 sequence (O00141 1-431): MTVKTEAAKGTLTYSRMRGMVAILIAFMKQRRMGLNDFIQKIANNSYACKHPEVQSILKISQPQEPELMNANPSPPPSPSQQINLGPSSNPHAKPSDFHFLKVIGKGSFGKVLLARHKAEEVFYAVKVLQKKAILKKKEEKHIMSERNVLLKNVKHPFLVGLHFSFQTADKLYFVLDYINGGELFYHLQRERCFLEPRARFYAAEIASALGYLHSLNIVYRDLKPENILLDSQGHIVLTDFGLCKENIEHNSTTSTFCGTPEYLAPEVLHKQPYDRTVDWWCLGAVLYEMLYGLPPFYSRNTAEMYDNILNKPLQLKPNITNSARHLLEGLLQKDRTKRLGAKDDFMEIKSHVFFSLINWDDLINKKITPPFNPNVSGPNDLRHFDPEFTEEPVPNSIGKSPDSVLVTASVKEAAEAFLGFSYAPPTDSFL
Experiment: SGK1 inhibition Assay B (Echo mass spectrometry of phosphorylated peptide product)
Assay type: biochemical
Settings: 60 min at room temperature

IC50 [nM]	Compound
0.6	Nc1ncnn2c(-c3ccc(-n4cnnn4)c(F)c3)cc(N3CCC[C@@H](NC(=O)c4sc(Cl)cc4OC4CC5CC4CN5C4COC4)C3)c12 (stereo partly drawn) [Example 994, N—((R)-1-(4-amino-7-(3-fluoro-4-(1H-tetrazol-1-yl)phenyl)pyrrolo[2,1-f][1,2,4]triazin-5-yl)piperidin-3-yl)-5-chloro-3-((2-(oxetan-3-yl)-2-azabicyclo[2.2.1]heptan-5-yl)oxy)thiophene-2-carboxamide]
1	Cc1nc(O[C@H]2CC[C@@H](NC(C)C)CC2)c(C(=O)N[C@@H]2CCCN(c3cc(C4=CC(=O)OC4)n4ncnc(N)c34)C2)s1 [Example 977, N—((R)-1-(4-amino-7-(5-oxo-2,5-dihydrofuran-3-yl)pyrrolo[2,1-f][1,2,4]triazin-5-yl)piperidin-3-yl)-4-(((1s,4S)-4-(isopropylamino)cyclohexyl)oxy)-2-methylthiazole-5-carboxamide]
0.1	COc1nccc(-c2cc(N3CCC[C@@H](NC(=O)c4sc(C)nc4O[C@H]4CC[C@@H](N5CCCC5)CC4)C3)c3c(N)ncnn23)n1 [Example 1029, N—((R)-1-(4-amino-7-(2-methoxypyrimidin-4-yl)pyrrolo[2,1-f][1,2,4]triazin-5-yl)piperidin-3-yl)-2-methyl-4-(((1s,4S)-4-(pyrrolidin-1-yl)cyclohexyl)oxy)thiazole-S-carboxamidemorpholinothiophene-2-carboxamide]
1	CN1[C@@H]2CC[C@H]1C[C@H](Oc1cc(Cl)sc1C(=O)N[C@@H]1CCCN(c3c(F)c(C4=CCOC4)n4ncnc(N)c34)C1)C2 [Example 976, N—((R)-1-(4-amino-7-(2,5-dihydrofuran-3-yl)-6-fluoropyrrolo[2,1-f][1,2,4]triazin-5-yl)piperidin-3-yl)-5-chloro-3-(((1R,3s,5S)-8-methyl-8-azabicyclo[3.2.1]octan-3-yl)oxy)thiophene-2-carboxamide]
1.1	CCC1=C(c2cc(N3CCC[C@@H](NC(=O)c4sc(C)nc4O[C@H]4CC[C@@H](NC(C)CO)CC4)C3)c3c(N)ncnn23)COC1=O (single isomer, unassigned) [Example 1020]
0.7	Cc1nc(OC2CCC(N3CC(C)C3)CC2)c(C(=O)N[C@@H]2CCCN(c3cc(C4=CC(=O)OC4)n4ncnc(N)c34)C2)s1 (stereo partly drawn) [Example 999, (R)-N-(1-(4-amino-7-(5-oxo-2,5-dihydrofuran-3-y1)pyrrolo[2,1-f] [1,2,4]triazin-5-yl)piperidin-3-y1)-2-methyl-4-((4-(3-methylazetidin-1-yl)cyclohexyl)oxy)thiazole-5-carboxamide]
1.1	CNC(=O)c1ccc(-c2cc(N3CCC[C@@H](NC(=O)c4sc(C)nc4O[C@H]4CC[C@@H](N(C)C)CC4)C3)c3c(N)ncnn23)nc1OC [Example 1058, N—((R)-1-(4-amino-7-(6-methoxy-5-(methylcarbamoyl)pyridin-2-yl)pyrrolo[2,1-f][1,2,4]triazin-5-yl)piperidin-3-yl)-4-(((1S,4S)-4-(dimethylamino)cyclohexyl)oxy)-2-methylthiazole-5-carboxamide]
1	COC[C@@H](C)NC1CCC(Oc2nc(C)sc2C(=O)N[C@@H]2CCCN(c3cc(C4=C(C)C(=O)OC4)n4ncnc(N)c34)C2)CC1 (stereo partly drawn) [Example 1008, N-((R)-1-(4-amino-7-(4-methyl-5-oxo-2,5-dihydrofuran-3-y1)pyrrolo[2,1-f][1,2,4]triazin-5-yl)piperidin-3-y1)-4-((4-(((R)-1-methoxypropan-2-yl)amino)cyclohexyl)oxy)-2-methylthiazole-5-carboxamide]
4	CC(C)S(=O)(=O)c1ccc(-c2cc(N3CCC[C@@H](NC(=O)c4sc(Cl)cc4O[C@@H]4C[C@H]5CC[C@@H](C4)N5C)C3)c3c(N)ncnn23)cn1 [Example 969, N-[(3R)-1-{4-amino-7-[6-(propane-2-sulfonyl)pyridin-3-yl]pyrrolo[2,1-f][1,2,4]triazin-5-yl}piperidin-3-yl]-5-chloro-3-{[(R,3R,5S)-8-methyl-8-azabicyclo[3.2.1]octan-3-yl]oxy}thiophene-2-carboxamide]
1	CN(C)CC(=O)N1CC2CCC1CC2Oc1cc(Cl)sc1C(=O)N[C@@H]1CCCN(c2cc(-c3ccc(-n4cnnn4)nc3)n3ncnc(N)c23)C1 (stereo partly drawn) [Example 990]
1	COCCn1nc(-c2cc(N3CCC[C@@H](NC(=O)c4sc(Cl)cc4O[C@@H]4C[C@H]5CCC[C@@H](C4)N5C)C3)c3c(N)ncnn23)ccc1=O [Example 971, N—((R)-1-(4-Amino-7-(1-(2-methoxyethyl)-6-oxo-1,6-dihydropyridazin-3-yl)pyrrolo[2,1-f][1,2,4]triazin-5-yl)piperidin-3-yl)-5-chloro-3-(((1R,3s,5S)-9-methyl-9-azabicyclo[3.3.1]nonan-3-yl)oxy)thiophene-2-carboxamide]

Further lines, the compound ahead of its results:

Compound	IC50 [nM]
CN1[C@@H]2CC[C@H]1C[C@H](Oc1cc(Cl)sc1C(=O)N[C@@H]1CCCN(c3cc(-c4ccc(-n5cccn5)cc4)n4ncnc(N)c34)C1)C2 [Example 837, N-((R)-1-(7-(4-(1H-pyrazol-1-yl)phenyl)-4-aminopyrrolo[2,1-f][1,2,4]triazin-5-yl)piperidin-3-yl)-5-chloro-3-(((1R,3s,5S)-8-methyl-8-azabicyclo[3.2.1]octan-3-yl)oxy)thiophene-2-carboxamide]	4
CC(=O)N1CC=C(c2cc(N3CCC[C@@H](NC(=O)c4sc(Cl)cc4OC4CC5CC(C4)N(C)C5)C3)c3c(N)ncnn23)C1 (single isomer, unassigned) [Example 952]	7
CN1[C@@H]2CC[C@H]1C[C@H](Oc1cc(Cl)sc1C(=O)N[C@@H]1CCCN(c3cc(C4=CCOC4)n4ncnc(N)c34)C1)C2 [Example 926, N—((R)-1-(4-amino-7-(2,5-dihydrofuran-3-yl)pyrrolo[2,1-f][1,2,4]triazin-5-yl)piperidin-3-yl)-5-chloro-3-(((1R,3s,5S)-8-methyl-8-azabicyclo[3.2.1]octan-3-yl)oxy)thiophene-2-carboxamide, TFA salt]	0.8
CC(=O)c1ccc(-c2cc(N3CCC[C@@H](NC(=O)c4cccc(N5CC6(C5)CN(C(C)C)C6)n4)C3)c3c(N)ncnn23)cn1 [Example 831, (R)-N-(1-(7-(6-acetylpyridin-3-yl)-4-aminopyrrolo[2,1-f][1,2,4]triazin-5-yl)piperidin-3-yl)-6-(6-isopropyl-2,6-diazaspiro[3.3]heptan-2-yl)picolinamide]	22
Cc1nc(OC2COC3(CCNCC3)C2)c(C(=O)N[C@@H]2CCCN(c3cc(-c4ccc(C(N)=O)c(F)c4)n4ncnc(N)c34)C2)s1 (single isomer, unassigned) [Example 954]	4
CC(C)N1CC2(CN(c3cccc(C(=O)N[C@@H]4CCCN(c5cc(-c6ccc(C#N)c(F)c6)n6ncnc(N)c56)C4)n3)C2)C1 [Example 818, (R)-N-(1-(4-amino-7-(4-cyano-3-fluorophenyl)pyrrolo[2,1-f][1,2,4]triazin-5-yl)piperidin-3-yl)-6-(6-isopropyl-2,6-diazaspiro[3.3]heptan-2-yl)picolinamide]	3
N—((R)-1-(4-amino-7-(5-fluoro-1-(2-methoxyethyl)-6-oxo-1,6-dihydropyridin-3-yl)pyrrolo[2,1-f][1,2,4]triazin-5-yl)piperidin-3-yl)-5-chloro-3-(((1R,3s,5S)-8-methyl-8-azabicyclo[3.2.1]octan-3-yl)oxy)thiophene-2-carboxamide [Example 974]	1
CC(C)N1CC2(CN(c3cccc(C(=O)N[C@@H]4CCCN(c5cc(-c6ccc(-n7cnnn7)c(F)c6)n6ncnc(N)c56)C4)n3)C2)C1 [Example 816, (R)-N-(1-(4-amino-7-(3-fluoro-4-(1H-tetrazol-1-yl)phenyl)pyrrolo[2,1-f][1,2,4]triazin-5-yl)piperidin-3-yl)-6-(6-isopropyl-2,6-diazaspiro[3.3]heptan-2-yl)picolinamide]	6
Cc1nc(OC2CC3(CCN(C)CC3)C2)c(C(=O)N[C@@H]2CCCN(c3cc(-c4ccc(C#N)nc4)n4ncnc(N)c34)C2)s1 [Example 955, (R)—N-(1-(4-amino-7-(6-cyanopyridin-3-yl)pyrrolo[2,1-f][1,2,4]triazin-5-yl)piperidin-3-yl)-2-methyl-4-((7-methyl-7-azaspiro[3.5]nonan-2-yl)oxy)thiazole-5-carboxamide]	17
CN1[C@@H]2CC[C@H]1C[C@H](Oc1cc(Cl)sc1C(=O)N[C@@H]1CCCN(c3cc(-c4cnc(-n5cnnn5)c(F)c4)n4ncnc(N)c34)C1)C2 [Example 843, N-((R)-1-(4-amino-7-(5-fluoro-6-(1H-tetrazol-1-yl)pyridin-3-yl)pyrrolo[2,1-f][1,2,4]triazin-5-yl)piperidin-3-yl)-5-chloro-3-(((1R,3s,5S)-8-methyl-8-azabicyclo[3.2.1]octan-3-yl)oxy)thiophene-2-carboxamide]	2
CC(=O)c1ccc(-c2cc(N3CCC[C@@H](NC(=O)c4ccnc(N5CCN(C)CC5)n4)C3)c3c(N)ncnn23)cn1 [Example 851, (R)-N-(1-(7-(6-acetylpyridin-3-yl)-4-aminopyrrolo[2,1-f][1,2,4]triazin-5-yl)piperidin-3-yl)-2-(4-methylpiperazin-1-yl)pyrimidine-4-carboxamide]	18
Nc1ncnn2c(-c3ccc(-n4cnnn4)c(F)c3)cc(N3CCC[C@@H](NC(=O)c4sc(Cl)cc4OC4CCC(O)CC4)C3)c12 (single isomer, unassigned; isomer 2) [Example 935]	0.2
(R)-N-(1-(4-amino-7-(4-(5-methyl-1H-tetrazol-1-yl)phenyl)pyrrolo[2,1-f][1,2,4]triazin-5-yl)piperidin-3-yl)-2-(4-methylpiperazin-1-yl)pyrimidine-4-carboxamide [Example 857]	15

From US20260250290A1 (BRISTOL-MYERS SQUIBB COMPANY, priority 2023, published 2026)
